Here are results for 4 molecules from BindingDB's records for patent US12391671 (Dana-Farber Cancer Institute, 2025).

Broadly, the IC50 is the midpoint of a concentration-inhibition curve. Read a high IC50 as weaker potency in that assay.

What all share (test): HTRF-Based EGFR Biochemical Assay
Assay [1] has as its target Epidermal growth factor receptor [L858R] (Homo sapiens, UniProt P00533, L858R). The method, then: (§1) EGFR biochemical activity measurements were carried out using the homogeneous time-resolved fluorescence (HTRF) assay (Cisbio), inhibitors and DMSO normalizations were first dispensed to empty black low-volume 384-well plates (Corning) with 0300 digital liquid dispenser (HP). All reactions were carried out at room temperature and solutions were added to plates with a Multidrop Combi Reagent Dispenser (ThermoFisher). The reaction mixture (10 μL final volume) contained 1 μM tyrosine kinase peptide-biotin substrate and mutant EGFR in a reaction buffer (50 mM HEPES pH 7.0, 5 mM MgCl2, 1 mM MnCl2, 0.01% BSA, 2 mM TCEP, 0.1 mM NaVO4). Enzyme concentrations were adjusted to accommodate varying kinase activities (L858R 0.1 nM, L858R/T790M 0.02 nM). Enzyme reaction solution (2× concentrations, 5 μL) was added to 384-well plates containing compounds and incubated for 30 mins. Enzyme reactions were initiated with the addition of 5 μL of ATP to a final concentration of 100 μM and reacted for 20 mins. Reactions were quenched with the addition of 10 μL of phospho-tyrosine antibody-Europium(III) cryptate (1-to-180 volume ratio) and Streptavidin-XL665 (46.7 nM) in EDTA-containing detection buffer, then incubated at room temperature for 1 hour, and read with a PHERAstar plate reader (excitation=337 nm, emission=620 nm and 665 nm).

The target in assay [2] is Epidermal growth factor receptor [T790M,L858R] (Homo sapiens, UniProt P00533, L858R/T790M). The protocol: as §1
Sequence of Epidermal growth factor receptor [T790M,L858R] (Homo sapiens, UniProt P00533, L858R/T790M) (P00533 25-1210 T790M/L858R limits assumed): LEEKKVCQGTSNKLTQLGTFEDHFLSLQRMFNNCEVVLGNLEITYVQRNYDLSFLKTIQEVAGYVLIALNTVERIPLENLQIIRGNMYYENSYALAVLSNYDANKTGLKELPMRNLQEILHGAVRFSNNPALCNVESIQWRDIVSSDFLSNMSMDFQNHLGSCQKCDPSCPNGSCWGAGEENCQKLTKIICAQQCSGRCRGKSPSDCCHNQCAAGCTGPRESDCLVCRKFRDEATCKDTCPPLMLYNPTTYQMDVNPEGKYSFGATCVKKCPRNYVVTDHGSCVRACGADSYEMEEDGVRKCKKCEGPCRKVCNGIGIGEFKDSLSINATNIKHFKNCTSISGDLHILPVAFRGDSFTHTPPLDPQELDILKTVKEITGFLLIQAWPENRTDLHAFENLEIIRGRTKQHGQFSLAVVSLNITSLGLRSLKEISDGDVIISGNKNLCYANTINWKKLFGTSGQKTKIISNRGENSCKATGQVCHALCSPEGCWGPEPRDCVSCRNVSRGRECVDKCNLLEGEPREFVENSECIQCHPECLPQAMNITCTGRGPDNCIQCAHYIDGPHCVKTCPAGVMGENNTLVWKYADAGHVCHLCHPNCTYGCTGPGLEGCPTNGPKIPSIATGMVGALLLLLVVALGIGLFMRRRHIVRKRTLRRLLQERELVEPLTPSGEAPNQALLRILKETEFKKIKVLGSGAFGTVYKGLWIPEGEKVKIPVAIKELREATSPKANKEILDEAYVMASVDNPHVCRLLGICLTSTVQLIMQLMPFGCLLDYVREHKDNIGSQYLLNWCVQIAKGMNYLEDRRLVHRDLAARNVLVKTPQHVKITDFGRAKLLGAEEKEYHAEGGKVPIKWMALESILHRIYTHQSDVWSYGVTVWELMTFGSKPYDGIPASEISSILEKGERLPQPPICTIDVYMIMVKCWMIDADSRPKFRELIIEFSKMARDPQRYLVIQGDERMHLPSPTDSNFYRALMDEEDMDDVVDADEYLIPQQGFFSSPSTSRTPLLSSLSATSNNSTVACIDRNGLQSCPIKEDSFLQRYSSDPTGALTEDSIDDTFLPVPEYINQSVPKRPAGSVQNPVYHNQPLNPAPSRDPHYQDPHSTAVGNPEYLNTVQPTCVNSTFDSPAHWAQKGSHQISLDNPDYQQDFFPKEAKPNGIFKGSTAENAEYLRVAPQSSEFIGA
The target of assay [3] is Epidermal growth factor receptor [T790M,L858R] (Homo sapiens, UniProt P00533, T790M/L858R). The method, then:
as §1

Sequence of Epidermal growth factor receptor [L858R] (P00533 25-1210 L858R limits assumed): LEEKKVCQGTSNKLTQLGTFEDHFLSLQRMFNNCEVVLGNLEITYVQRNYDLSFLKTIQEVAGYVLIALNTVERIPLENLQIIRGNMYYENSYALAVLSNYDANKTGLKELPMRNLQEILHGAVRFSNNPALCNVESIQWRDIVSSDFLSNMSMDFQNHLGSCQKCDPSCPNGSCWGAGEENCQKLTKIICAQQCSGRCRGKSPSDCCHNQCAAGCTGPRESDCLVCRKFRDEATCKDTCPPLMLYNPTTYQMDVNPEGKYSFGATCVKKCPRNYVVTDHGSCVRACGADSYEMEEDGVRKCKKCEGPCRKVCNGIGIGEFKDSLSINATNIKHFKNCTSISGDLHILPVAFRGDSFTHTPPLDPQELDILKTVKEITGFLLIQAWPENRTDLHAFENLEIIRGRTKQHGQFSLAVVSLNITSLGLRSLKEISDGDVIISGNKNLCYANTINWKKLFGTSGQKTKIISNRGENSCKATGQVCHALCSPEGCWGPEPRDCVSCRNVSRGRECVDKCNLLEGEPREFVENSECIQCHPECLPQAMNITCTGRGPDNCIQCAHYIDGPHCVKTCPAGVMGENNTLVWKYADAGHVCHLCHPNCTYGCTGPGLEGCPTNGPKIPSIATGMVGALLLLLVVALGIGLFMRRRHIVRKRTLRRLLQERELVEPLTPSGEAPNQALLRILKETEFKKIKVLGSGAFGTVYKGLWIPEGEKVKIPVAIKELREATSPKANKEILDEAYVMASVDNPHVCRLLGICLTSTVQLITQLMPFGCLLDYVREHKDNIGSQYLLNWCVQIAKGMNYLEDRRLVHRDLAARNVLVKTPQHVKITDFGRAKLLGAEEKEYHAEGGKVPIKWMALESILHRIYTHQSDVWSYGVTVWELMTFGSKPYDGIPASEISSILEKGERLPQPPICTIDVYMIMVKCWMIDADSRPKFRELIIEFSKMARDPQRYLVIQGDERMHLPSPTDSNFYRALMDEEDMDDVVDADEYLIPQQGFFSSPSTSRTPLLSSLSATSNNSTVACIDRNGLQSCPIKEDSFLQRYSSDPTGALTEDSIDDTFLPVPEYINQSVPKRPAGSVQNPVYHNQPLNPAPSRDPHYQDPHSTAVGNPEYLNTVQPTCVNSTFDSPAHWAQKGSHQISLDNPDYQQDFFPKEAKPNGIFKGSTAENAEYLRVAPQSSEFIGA
Sequence of Epidermal growth factor receptor [T790M,L858R] (Homo sapiens, UniProt P00533, T790M/L858R) (P00533 25-1210 T790M/L858R limits assumed): as the sequence (P00533 25-1210 T790M/L858R limits assumed) above

With `CN1CCC(c2ccc(-c3ccc4c(c3F)C(=O)N(C(c3nc5ccccc5[nH]3)c3cc(F)ccc3O)C4)cc2)CC1` (stereo not drawn) [US12391671, Compound 032], the IC50 was found to be 2 nM in assay [1] and 0.3 nM in assay [2].
On the same counts, the results for `CN1CCC(c2ccc(-c3ccc4c(c3)C(=O)N(C(c3nc5ccccc5[nH]3)c3cccc(Cl)c3O)C4)cc2)CC1` (stereo not drawn) [US12391671, Compound 043] are 49 nM and 73 nM.
The corresponding values for `O=C1c2cc(-c3ccc(N4CCNCC4)cc3)ccc2CN1C(c1nc2ccccc2[nH]1)c1cc(F)ccc1O` (stereo not drawn) [US12391671, Compound 021] are 6 nM and 2 nM.
Turning to `CC1=CNC([C@H](c2cc(F)ccc2O)N2CC3=CC=C(c4ccc(C5CCN(C)CC5)cc4)C(F)C3C2=O)N1` (stereo partly drawn) [US12391671, Compound 094], the IC50 was 1 nM in assay [1] and 2 nM in assay [3].
